# Measurements taken from ChEMBL document CHEMBL3390836, “Mannich- and LedererManasse-based analogues of the natural product S-(+)-curcuphenol as cancer proliferation and migration inhibitors” (Medchemcomm, 2012).
# What was measured:
# Assay type in all cases: functional
# [1] = system: LOX IMVI; test: Cytotoxicity against human LOXIMVI cells assessed as cell growth at 10^-6 M after 48 hrs by SRB assay relative to control; conditions: read-out: Activity
# [2] = Cytotoxicity against human HCT116 cells assessed as cell growth at 10^-4 M after 48 hrs by SRB assay relative to control; conditions: HCT-116, 48 h, read-out: Activity
# [3] = system: SNB-19; test: Cytotoxicity against human SNB19 cells assessed as cell growth at 10^-6 M after 48 hrs by SRB assay relative to control; conditions: SNB-19, 48 h, read-out: Activity
# [4] = system: SF-539; test: Cytotoxicity against human SF539 cells after 48 hrs by SRB assay; conditions: SF-539, 48 h
# [5] = system: 786-0; test: Cytotoxicity against human 786-0 cells assessed as cell growth at 10^-6 M after 48 hrs by SRB assay relative to control; conditions: 786-0, 48 h, read-out: Activity
# [6] = system: COLO 205; test: Cytotoxicity against human COLO205 cells assessed as cell growth at 10^-6 M after 48 hrs by SRB assay relative to control; conditions: COLO 205, 48 h, read-out: Activity
# [7] = system: NCI-H322M; test: Cytotoxicity against human NCI-H322M cells assessed as cell growth at 10^-4 M after 48 hrs by SRB assay relative to control; conditions: read-out: Activity
# [8] = system: ACHN; test: Cytotoxicity against human ACHN cells assessed as cell growth at 10^-4 M after 48 hrs by SRB assay relative to control; conditions: read-out: Activity
# [9] = Cytotoxicity against human UO31 cells assessed as cell growth at 10^-6 M after 48 hrs by SRB assay relative to control; conditions: UO-31, 48 h, read-out: Activity
# [10] = system: COLO 205; test: Cytotoxicity against human COLO205 cells after 48 hrs by SRB assay; conditions: COLO 205, 48 h
# [11] = system: SN12C; test: Cytotoxicity against human SN12C cells assessed as cell growth at 10^-4 M after 48 hrs by SRB assay relative to control; conditions: read-out: Activity
# [12] = system: KM12; test: Cytotoxicity against human KM12 cells assessed as cell growth at 10^-6 M after 48 hrs by SRB assay relative to control; conditions: KM12, 48 h, read-out: Activity
# [13] = system: HT-29; test: Cytotoxicity against human HT-29 cells assessed as cell growth at 10^-7 M after 48 hrs by SRB assay relative to control; conditions: HT-29, 48 h, read-out: Activity
# [14] = system: SW-620; test: Cytotoxicity against human SW620 cells assessed as cell growth at 10^-7 M after 48 hrs by SRB assay relative to control; conditions: SW-620, 48 h, read-out: Activity
# [15] = Cytotoxicity against human Hs 578T cells assessed as cell growth at 10^-8 M after 48 hrs by SRB assay relative to control; conditions: read-out: Activity
# [16] = system: CAKI-1; test: Cytotoxicity against human Caki1 cells after 48 hrs by SRB assay; conditions: CAKI-1, 48 h
# [17] = Cytotoxicity against human OVCAR4 cells assessed as cell growth at 10^-7 M after 48 hrs by SRB assay relative to control; conditions: OVCAR-4, 48 h, read-out: Activity
# [18] = Cytotoxicity against human HCT15 cells after 48 hrs by SRB assay; conditions: HCT-15, 48 h
# [19] = system: MDA-MB-468; test: Cytotoxicity against human MDA-MB-468 cells assessed as cell growth at 10^-4 M after 48 hrs by SRB assay relative to control; conditions: MDA-MB-468, 48 h, read-out: Activity
# [20] = system: MDA-MB-435; test: Cytotoxicity against human MDA-MB-435 cells assessed as cell growth at 10^-6 M after 48 hrs by SRB assay relative to control; conditions: MDA-MB-435, 48 h, read-out: Activity
# [21] = Cytotoxicity against human UACC62 cells assessed as cell growth at 10^-6 M after 48 hrs by SRB assay relative to control; conditions: UACC-62, 48 h, read-out: Activity
# [22] = Cytotoxicity against human OVCAR3 cells assessed as cell growth at 10^-4 M after 48 hrs by SRB assay relative to control; conditions: OVCAR-3, 48 h, read-out: Activity
# [23] = system: MDA-MB-435; test: Cytotoxicity against human MDA-MB-435 cells assessed as cell growth at 10^-4 M after 48 hrs by SRB assay relative to control; conditions: MDA-MB-435, 48 h, read-out: Activity
# [24] = system: HOP-62; test: Cytotoxicity against human HOP62 cells after 48 hrs by SRB assay; conditions: HOP-62, 48 h
# [25] = Cytotoxicity against human OVCAR8 cells assessed as cell growth at 10^-7 M after 48 hrs by SRB assay relative to control; conditions: OVCAR-8, 48 h, read-out: Activity
# [26] = Cytotoxicity against human UO31 cells assessed as cell growth at 10^-4 M after 48 hrs by SRB assay relative to control; conditions: UO-31, 48 h, read-out: Activity
# [27] = system: SNB-75; test: Cytotoxicity against human SNB75 cells assessed as cell growth at 10^-7 M after 48 hrs by SRB assay relative to control; conditions: SNB-75, 48 h, read-out: Activity
# [28] = system: NCI-H460; test: Cytotoxicity against human NCI-H460 cells after 48 hrs by SRB assay; conditions: NCI-H460, 48 h
# [29] = system: SNB-19; test: Cytotoxicity against human SNB19 cells assessed as cell growth at 10^-4 M after 48 hrs by SRB assay relative to control; conditions: SNB-19, 48 h, read-out: Activity
# [30] = system: SF-295; test: Cytotoxicity against human SF295 cells assessed as cell growth at 10^-7 M after 48 hrs by SRB assay relative to control; conditions: SF-295, 48 h, read-out: Activity
# [31] = Cytotoxicity against human OVCAR5 cells assessed as cell growth at 10^-6 M after 48 hrs by SRB assay relative to control; conditions: OVCAR-5, 48 h, read-out: Activity
# [32] = system: CAKI-1; test: Cytotoxicity against human Caki1 cells assessed as cell growth at 10^-6 M after 48 hrs by SRB assay relative to control; conditions: CAKI-1, 48 h, read-out: Activity
# [33] = Cytotoxicity against human HCT15 cells assessed as cell growth at 10^-8 M after 48 hrs by SRB assay relative to control; conditions: HCT-15, 48 h, read-out: Activity
# [34] = Cytotoxicity against human OVCAR3 cells after 48 hrs by SRB assay; conditions: OVCAR-3, 48 h
# [35] = system: NCI-H23; test: Cytotoxicity against human NCI-H23 cells assessed as cell growth at 10^-7 M after 48 hrs by SRB assay relative to control; conditions: NCI-H23, 48 h, read-out: Activity
# [36] = system: Malme-3M; test: Cytotoxicity against human MALME-3M cells assessed as cell growth at 10^-4 M after 48 hrs by SRB assay relative to control; conditions: read-out: Activity
# [37] = read-out: LC50 (the source's name)
smiles,measurement,setting,value
COc1ccc(CCN2COc3c([C@@H](C)CCC=C(C)C)ccc(C)c3C2)cc1OC,growth at 1 µM,[1],88%
same,growth at 100 µM,[2],-100%
same,growth at 1 µM,[3],95%
same,GI50,[4],4.47 µM
same,TGI,[4],15.9 µM
same,CC50,[4]; [37],39.9 µM
same,growth at 1 µM,[5],96%
same,growth at 1 µM,[6],100%
same,growth at 100 µM,[7],-69%
same,growth at 100 µM,[8],-92%
same,growth at 1 µM,[9],76%
same,GI50,[10],1.79 µM
same,TGI,[10],3.19 µM
same,CC50,[10]; [37],5.7 µM
same,growth at 100 µM,[11],-100%
same,growth at 1 µM,[12],93%
same,growth at 0.1 µM,[13],93%
same,growth at 0.1 µM,[14],93%
same,growth at 0.01 µM,[15],78%
same,GI50,[16],2.73 µM
same,TGI,[16],12.1 µM
same,CC50,[16]; [37],41.3 µM
same,growth at 0.1 µM,[17],90%
same,GI50,[18],2.84 µM
same,TGI,[18],10.4 µM
same,CC50,[18]; [37],38.2 µM
same,growth at 100 µM,[19],-92%
same,growth at 1 µM,[20],96%
same,growth at 1 µM,[21],86%
same,growth at 100 µM,[22],-94%
same,growth at 100 µM,[23],-78%
same,GI50,[24],1.86 µM
same,LC50,[24],7.05 µM
same,TGI,[24],36.2 µM
same,growth at 0.1 µM,[25],95%
same,growth at 100 µM,[26],-96%
same,growth at 0.1 µM,[27],86%
same,GI50,[28],2.06 µM
same,TGI,[28],4.3 µM
same,CC50,[28]; [37],8.95 µM
same,growth at 100 µM,[29],-33%
same,growth at 0.1 µM,[30],92%
same,growth at 1 µM,[31],97%
same,growth at 1 µM,[32],83%
same,growth at 0.01 µM,[33],85%
same,GI50,[34],3.55 µM
same,LC50,[34],40.1 µM
same,TGI,[34],14.1 µM
same,growth at 0.1 µM,[35],107%
same,growth at 100 µM,[36],-88%
